Assay [1] relates to B-lymphocyte cancer cells (U266). As to the kind of experiment: In vitro cytotoxicity, CellTiter-Glo 96 h, U266. The settings on record: Homo sapiens, U-266, read-out: Cytotoxic potency as free drug, IC50, U266. (In general: In ATP-based viability assays light output follows the ATP content of the culture.)
Description: (§1) In vitro potency was assessed on multiple cancer cell lines. All cell lines were authenticated by STR profiling at IDEXX Bioresearch and cultured for no more than 2 months after resuscitation. Cells cultured in log-phase growth were seeded for 24 hours in 96-well plates containing 150 μl RPMI 1640 supplemented with 20% FBS. Serial dilutions of antibody-drug conjugates in cell culture media were prepared at 4× working concentrations, and 50 μl of each dilution was added to the 96-well plates. Following addition of test articles, cells were incubated with test articles for 4 days at 37° C. After 96 hours, growth inhibition was assessed by CellTiter-Glo® (Promega, Madison, Wis.) and luminescence was measured on a plate reader.
(§2) Cell viability was determined by CellTiter-Glo staining after 96 h exposure to ADC. […] Ag1 is an antibody targeting a ubiquitous and readily internalizable antigen on cancer cells, Ag2 is cAC10 antibody targeting CD30(+) cancer cells, Ag3 is h1F6 antibody targeting CD70(+) cancer cells, Ag4 is hMEM102 antibody targeting CD48(+) cancer cells, Ag5 is h20F3 antibody targeting NTB-A expressing cancer cells, and h00 is a non-binding control antibody.
Assay [2] deals with renal carcinoma cells (786-O). Put plainly: In vitro cytotoxicity, CellTiter-Glo 96 h, 786-O. Particulars: Homo sapiens, 786-0, read-out: Cytotoxic potency (IC50 class), 786-O.
Description: as §1
(§3) Cell viability was determined by CellTiter-Glo staining after 96 h exposure to ADC.
Assay [3] deals with pancreatic cancer cells (BxPC3). As to the kind of experiment: In vitro cytotoxicity, CellTiter-Glo 96 h, BxPC3. The settings on record: Homo sapiens, BXPC-3, read-out: Cytotoxic potency (IC50 class), BxPC3.
Description: as §1, §3
For assay [4], the system named is acute promyelocytic leukemia cells (HL-60). Put plainly: In vitro cytotoxicity, CellTiter-Glo 96 h, HL-60. The settings on record: Homo sapiens, HL-60, read-out: Cytotoxic potency (IC50 class), HL-60.
Description: as §1, §2
Assay [5] relates to multiple myeloma cells (MM.1R). As to the kind of experiment: In vitro cytotoxicity, CellTiter-Glo 96 h, MM.1R. Particulars: read-out: Cytotoxic potency (IC50 class), MM.1R.
Description: as §1, §2
Assay [6] relates to Burkitt's lymphoma cells (Ramos). Put plainly: In vitro cytotoxicity, CellTiter-Glo 96 h, Ramos. Particulars: Homo sapiens, read-out: Cytotoxic potency as free drug, IC50, Ramos.
Description: as §1, §3
In assay [7] the test system is Hodgkin's lymphoma cells (L540cy). Put plainly: In vitro cytotoxicity, CellTiter-Glo 96 h, L540cy. Particulars: read-out: Cytotoxic potency (IC50 class), L540cy.
Description: as §1, §3
Assay [8] has as its system acute myeloid leukemia cells (MOLM13). As to the kind of experiment: In vitro cytotoxicity, CellTiter-Glo 96 h, MOLM13. The settings on record: Homo sapiens, MOLM-13, read-out: Cytotoxic potency as free drug, IC50, MOLM13.
Description: as §1, §3
The subject of assay [9] is melanoma cells (SK-MEL-5). As to the kind of experiment: In vitro cytotoxicity, CellTiter-Glo 96 h, SK-MEL-5. The settings on record: Homo sapiens, SK-MEL-5, read-out: Cytotoxic potency as free drug, IC50, SK-MEL-5.
Description: as §1, §2
Assay [10] has as its system B-lymphocyte cancer cells (SU-DHL-4). Put plainly: In vitro cytotoxicity, CellTiter-Glo 96 h, SU-DHL-4. Particulars: Homo sapiens, SU-DHL-4, read-out: Cytotoxic potency as free drug, IC50, SU-DHL-4.
Description: as §1, §2
Assay [11] deals with multiple drug resistant acute promyelocytic leukemia cells (HL-60/RV). Put plainly: In vitro cytotoxicity, CellTiter-Glo 96 h, HL60/RV. Particulars: Homo sapiens, HL-60, read-out: Cytotoxic potency (IC50 class), HL60/RV.
Description: as §1, §3

`CC[C@@]1(O)C(=O)OCc2c1cc1n(c2=O)Cc2c-1nc1cc3c(cc1c2CNC(=O)CCN)OCO3` [Compound 4d]: the IC50 in assay [1] lay within 10 to 100 nM; in [2] it was 100 to 1000 nM; in assay [3], 100 to 1000 nM; in [4], 100 to 1000 nM; in [5] it was 1 to 10 nM; in assay [6], 10 to 100 nM. Further, the IC50 fell in the range of 100 to 1000 nM in assay [7], 10 to 100 nM in assay [8], 10 to 100 nM in assay [9] and 10 to 100 nM in assay [10].

`CC[C@@]1(O)C(=O)OCc2c1cc1n(c2=O)Cc2c-1nc1cc3c(cc1c2CN(C)C(=O)CN)OCO3` [Compound 4c]: the IC50 in assay [1] lay in the range of 10 to 100 nM; in [2], 10 to 100 nM; in assay [3], 100 to 1000 nM; in assay [4], 100 to 1000 nM; in [5] it was 10 to 100 nM; in [6], 1 to 10 nM. In addition, the IC50 in assay [7] lay in the range of 10 to 100 nM; in [8] it was 1 to 10 nM; in [11], 100 to 1000 nM; in [9], 100 to 1000 nM; in assay [10], 10 to 100 nM.

`CC[C@@]1(O)C(=O)OCc2c1cc1n(c2=O)Cc2c-1nc1cc(F)c(C)c3c1c2[C@@H](N)CC3` [Compound 8b]: the IC50 in assay [1] was 1 to 10 nM; in assay [2] it was 1 to 10 nM; in assay [3] it was 1 to 10 nM; in [4], 10 to 100 nM; in assay [5], 1 to 10 nM; in [6] it was 0.1 to 1 nM. The IC50 was in the range of 1 to 10 nM in [7]; 10 to 100 nM in assay [8]; 10 to 100 nM in assay [11]; 1 to 10 nM in assay [9]; 1 to 10 nM in assay [10].

As for `CCc1c2c(nc3cc4c(cc13)OCO4)-c1cc3c(c(=O)n1C2)COC(=O)[C@]3(O)CC` [Compound 6e], the IC50 was 1 to 10 nM in [1]; 0.1 to 1 nM in assay [2]; 1 to 10 nM in assay [3]; 1 to 10 nM in assay [4]; 0.1 to 1 nM in [5]; 0.1 to 1 nM in assay [6]. The IC50 in assay [7] was 0.1 to 1 nM; in assay [8] it was 1 to 10 nM; in assay [11] it was 1 to 10 nM; in assay [9], 1 to 10 nM; in assay [10], 0.1 to 1 nM.

For `CC[C@@]1(O)C(=O)OCc2c1cc1n(c2=O)Cc2c-1nc1cc3c(cc1c2-c1ccc(F)cc1)OCO3` [Compound 6], the IC50 in [1] lay within 1 to 10 nM; in assay [2], 1 to 10 nM; in [3] it was 1 to 10 nM; in assay [5], 1 to 10 nM; in [6] it was 0.1 to 1 nM; in assay [7] it was 0.1 to 1 nM. Besides, the IC50 is 0.1 to 1 nM in assay [8], 0.1 to 1 nM in assay [11], 1 to 10 nM in [9] and 0.1 to 1 nM in assay [10].

Take `CC[C@@]1(O)C(=O)OCc2c1cc1n(c2=O)Cc2c-1nc1cc3c(cc1c2CN1CCN(C)CC1)OCO3` [Compound 5h]: the IC50 lay within 10 to 100 nM in [1]; 1 to 10 nM in assay [2]; 10 to 100 nM in [3]; 10 to 100 nM in [4]; 1 to 10 nM in assay [5]; 1 to 10 nM in [6]. The IC50 in [7] is 1 to 10 nM; in assay [8] it was 1 to 10 nM; in [11], 10 to 100 nM; in [9], 10 to 100 nM; in assay [10] it was 1 to 10 nM.

For the molecule `CCCCCc1c2c(nc3cc4c(cc13)OCO4)-c1cc3c(c(=O)n1C2)COC(=O)[C@]3(O)CC` [Compound 6h], the IC50 in [1] fell in the range of 1 to 10 nM; in assay [2] it was 0.1 to 1 nM; in assay [3] it was 1 to 10 nM; in [4] it was 10 to 100 nM; in [5] it was 1 to 10 nM; in assay [6] it was 0.1 to 1 nM. The IC50 in assay [7] lay in the range of 1 to 10 nM; in assay [8], 10 to 100 nM; in [11], 10 to 100 nM; in assay [9], 1 to 10 nM; in assay [10], 0.1 to 1 nM.

`CC[C@@]1(O)C(=O)OCc2c1cc1n(c2=O)Cc2c-1nc1cc3c(cc1c2CNCCNC(C)C)OCO3` [Compound 5m]: the IC50 in [1] was 10 to 100 nM; in assay [2], 10 to 100 nM; in assay [3] it was 100 to 1000 nM; in [4] it was 100 to 1000 nM; in [5] it was 10 to 100 nM; in assay [6], 1 to 10 nM. Also, the IC50 lay in the range of 10 to 100 nM in [7], 10 to 100 nM in assay [8], 100 to 1000 nM in [9] and 10 to 100 nM in [10].

As for `CC[C@@]1(O)C(=O)OCc2c1cc1n(c2=O)Cc2c-1nc1cc3c(cc1c2CNCC1CCNCC1)OCO3` [Compound 5u], the IC50 in assay [1] lay in the range of 10 to 100 nM; in assay [2] it was 10 to 100 nM; in assay [3], 10 to 100 nM; in assay [4] it was 100 to 1000 nM; in [5], 10 to 100 nM; in assay [6], 1 to 10 nM. For the same molecule, the IC50 in assay [7] lay within 10 to 100 nM; in [8], 10 to 100 nM; in assay [11], 100 to 1000 nM; in assay [9], 10 to 100 nM; in [10] it was 10 to 100 nM.

Consider `CC[C@@]1(O)C(=O)OCc2c1cc1n(c2=O)Cc2c-1nc1cc3c(cc1c2CNCC(C)C)OCO3` [Compound 5i], for which the IC50 lay within 1 to 10 nM in assay [1]; 1 to 10 nM in assay [2]; 1 to 10 nM in assay [3]; 10 to 100 nM in assay [4]; 1 to 10 nM in [5]; 1 to 10 nM in assay [6]. In addition, the IC50 in assay [7], in [8], in assay [11], in [9] and in [10] was 1 to 10 nM throughout.

For the molecule `CC[C@@]1(O)C(=O)OCc2c1cc1n(c2=O)Cc2c-1nc1cc3c(cc1c2CNCc1ccc(OC)cc1)OCO3` [Compound 5l], the IC50 was 10 to 100 nM in [1]; 10 to 100 nM in [2]; 10 to 100 nM in assay [3]; 10 to 100 nM in assay [4]; 1 to 10 nM in assay [5]; 1 to 10 nM in assay [6]. The IC50 fell in the range of 10 to 100 nM in assay [7]; 1 to 10 nM in assay [8]; 10 to 100 nM in assay [11]; 10 to 100 nM in assay [9]; 1 to 10 nM in assay [10].

Turning to `CC[C@@]1(O)C(=O)OCc2c1cc1n(c2=O)Cc2c-1nc1cc3c(cc1c2CN(CCN)CCO)OCO3` [Compound 5q], the IC50 in [1] lay in the range of 10 to 100 nM; in [2], 10 to 100 nM; in assay [3], 100 to 1000 nM; in assay [4], 100 to 1000 nM; in assay [5] it was 10 to 100 nM; in [6], 10 to 100 nM. Also, the IC50 in assay [7] fell in the range of 10 to 100 nM; in [8] it was 10 to 100 nM; in [11] it was 100 to 1000 nM; in [9], 100 to 1000 nM; in assay [10] it was 10 to 100 nM.

Turning to `CCC(C)c1c2c(nc3cc4c(cc13)OCO4)-c1cc3c(c(=O)n1C2)COC(=O)[C@]3(O)CC` (stereo partly shown) [Compound 6b], the IC50 in assay [1], in assay [2], in [3], in [5], in [6] and in [7] was 1 to 10 nM throughout. Besides, the IC50 in [8], in [11], in assay [9] and in assay [10] was 1 to 10 nM in each case.

With `CC[C@@]1(O)C(=O)OCc2c1cc1n(c2=O)Cc2c-1nc1cc3c(cc1c2CNC(=O)CN)OCO3` [Compound 4b], the IC50 in assay [1] lay in the range of 10 to 100 nM; in [2] it was 100 to 1000 nM; in assay [3] it was 100 to 1000 nM; in assay [4], 100 to 1000 nM; in assay [5], 10 to 100 nM; in [6], 10 to 100 nM. Also, the IC50 in [7] fell in the range of 10 to 100 nM; in assay [8], 10 to 100 nM; in assay [9], 100 to 1000 nM; in assay [10], 10 to 100 nM.

Regarding `CC[C@@]1(O)C(=O)OCc2c1cc1n(c2=O)Cc2c-1nc1cc3c(cc1c2CNC(=O)[C@@H](N)CCC(=O)O)OCO3` [Compound 4e], the IC50 in [3], in assay [6], in [7] and in assay [8] was 100 to 1000 nM in each case.

For `CC[C@@]1(O)C(=O)OCc2c1cc1n(c2=O)Cc2c-1nc1cc3c(cc1c2C(C)C)OCO3` [Compound 6c], the IC50 is 1 to 10 nM in [1]; 1 to 10 nM in assay [2]; 1 to 10 nM in [3]; 1 to 10 nM in [5]; 0.1 to 1 nM in [6]; 1 to 10 nM in [7]. In addition, the IC50 in assay [8] was in the range of 1 to 10 nM; in [11], 1 to 10 nM; in [9], 1 to 10 nM; in assay [10], 0.1 to 1 nM.

The record behind these values is US20190343828A1, “CAMPTOTHECIN PEPTIDE CONJUGATES” (SEATTLE GENETICS, INC., priority 2018, published 2019).
